Results published in patent US8785499B2 (priority 2009, dated 2014).
Values after ≈ are worked out from the molar mass of the structure shown.

Legend:
[1] = system: E. coli K-12 BW25113 (ΔnadA); assay: microbe, parasite or virus in culture; format: cell-based, Escherichia coli; details: for MIC50: Escherichia coli, BW25113, read-out: MIC50 E. coli
[2] = target: baNadD (Bacillus anthracis, UniProt C3L5T6); assay: biochemical; format: biochemical
[3] = system: B. anthracis sterne; assay: microbe, parasite or virus in culture; format: cell-based; details: Bacillus anthracis, read-out: MIC50 B. anth
[4] = system: B. subtilis 168; assay: microbe, parasite or virus in culture; format: cell-based; details: Bacillus subtilis, 168, read-out: MIC50 B. subt
[5] = target: ecNadD (Escherichia coli (strain K12), UniProt P0A752); assay: biochemical; format: biochemical

baNadD, sequence (C3L5T6 whole entry, looked up): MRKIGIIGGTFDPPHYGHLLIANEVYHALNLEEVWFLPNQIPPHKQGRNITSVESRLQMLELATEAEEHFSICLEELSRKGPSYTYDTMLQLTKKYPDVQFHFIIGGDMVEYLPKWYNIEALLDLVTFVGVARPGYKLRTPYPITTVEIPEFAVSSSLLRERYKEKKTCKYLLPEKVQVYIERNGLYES

SMILES	[…]. coli [5] [%]	[…]. anthracis [2] [%]	other results
Nc1c(C(=O)Nc2cccc(F)c2)sc2nc(-c3cccs3)ccc12 [03_02]	–	–	MIC50 [1]: 160 µM (≈ 59.1 µg/mL); inhibition at 50 µM ([2]; read-out: INHIBITION (%) B. anthracis): 100%; MIC50 [3]: 80 µM (≈ 29.6 µg/mL); MIC50 [4]: 40 µM (≈ 14.8 µg/mL)
Nc1c(C(=O)Nc2cc(Cl)ccc2Cl)sc2nc(-c3cccs3)ccc12 [03_05]	–	–	MIC50 [1]: 80 µM (≈ 33.6 µg/mL); MIC50 [3]: 10 µM (≈ 4.2 µg/mL); MIC50 [4]: 10 µM (≈ 4.2 µg/mL)
Nc1c(C(=O)Nc2ccc(F)cc2Cl)sc2nc(-c3ccc(F)cc3)ccc12 [03_23]	–	–	antibacterial activity against E. coli (qualitative) [1]: relatively strong antibacterial activity; MIC50 [1]: 40 µM (≈ 16.6 µg/mL); MIC50 [3]: 80 µM (≈ 33.3 µg/mL); MIC50 [4]: 80 µM (≈ 33.3 µg/mL)
COC(=O)c1ccc(N/C=C2\C(=O)Nc3ccccc32)cc1 [15_11]	–	–	MIC50 [1]: < 100 µM; MIC50 [4]: < 50 µM
CC(=O)c1cccc(NS(=O)(=O)c2cccc(C(=O)O)c2)c1 [compound 240]	0	0	–
O=[N+]([O-])c1cccc(S(=O)(=O)Nn2cnnc2)c1 [compound 241]	0	59	–
CC(c1ccccc1)c1nnc(N)s1 (stereo not drawn) [compound 242]	0	18	–
Cc1ccc(NS(=O)(=O)c2coc(C(N)=O)c2)cc1F [compound 243]	0	0	–
CC(=O)NC(=S)Nc1ccc(Cl)c(Cl)c1 [compound 244]	0	0	–
O=C(NCc1ccc(C(=O)O)cc1)Nc1ccc(Br)cc1Cl [compound 245]	0	0	–
O=C(O)C(Cc1ccccc1)NS(=O)(=O)c1ccc2c(c1)OCCO2 (stereo not drawn) [compound 246]	0	0	–
O=C(O)CCC(=O)OC/C=C/c1ccccc1 [compound 247]	0	18	–
O=C(CSc1nc2ccccc2[nH]1)Nc1cccc(C(=O)O)c1 [compound 248]	0	4	–
Cn1c(=O)n(C)c2cc(S(=O)(=O)NCCC(=O)O)ccc21 [compound 249]	0	1	–
NNC(=O)CNC(=O)CNS(=O)(=O)c1ccc(Cl)cc1 [compound 250]	0	0	–
CSc1nc2nc(N)nc(N)c2s1 [compound 251]	0	0	–
O=[N+]([O-])c1ccc2[nH]c(CCc3nc4cc([N+](=O)[O-])ccc4[nH]3)nc2c1 [compound 252]	0	0	–
Nc1nc(-c2cc([N+](=O)[O-])cc([N+](=O)[O-])c2)n[nH]1 [compound 253]	0	7	–
Nc1[nH][nH]c(=O)c1/N=N/c1ccccc1F [compound 254]	0	0	–
OCC#CCSc1nnc(-c2cccc(Br)c2)o1 [compound 255]	0	0	–

SMILES	[…]. coli [5] [%]	[…]. anthracis [2] [%]	other results
O=C(N/N=C/c1ccc(Br)cc1)c1[nH]ncc1Br [compound 256]	0	0	–
COC(=O)c1ccc(NC(=O)CNc2ccc(C(=O)O)cc2)cc1 [compound 258]	0	0	–
Cc1ccc(C2C(C#N)=C(N)Oc3ncnc(O)c32)cc1 (stereo not drawn) [compound 259]	0	0	–
O=C(NCCNc1ccc([N+](=O)[O-])cc1)c1ccccc1Br [compound 260]	0	0	–
O=C(O)CC(NC(=O)OCc1ccccc1)c1ccccc1 (stereo not drawn) [compound 261]	0	24	–
Cc1nn(-c2ccc([N+](=O)[O-])cc2)c(Cl)c1S(=O)(=O)O [compound 262]	0	5	–
Nc1nnc(SCC(=O)Nc2ccc(Cl)c(Cl)c2)s1 [compound 263]	0	0	–
Cc1ccc([N+](=O)[O-])cc1NS(=O)(=O)c1ccc(F)cc1 [compound 264]	0	0	–
Cc1noc(C)c1S(=O)(=O)Nc1ccc(Br)cc1 [compound 265]	0	4	–
Cc1nnc(N/N=C/c2ccccc2C(=O)O)nc1O [compound 267]	0	4	–
NC(N)=NS(=O)(=O)c1ccc(NC(=O)c2cccc([N+](=O)[O-])c2)cc1 [compound 268]	0	0	–
NS(=O)(=O)c1cc(C(=O)OCC(=O)c2ccccc2)ccc1Cl [compound 269]	0	22	–
O=C(O)c1ccc(CSCc2ccccc2)o1 [compound 270]	0	21	–
COC(=O)CSc1nnc(-c2ccc(Cl)cc2Cl)o1 [compound 274]	0	0	–
O=C(O)c1ccc(-c2ccc(C(=O)O)c(C(=O)O)c2)cc1C(=O)O [compound 275]	0	0	–
O=C(O)c1ccc2nc(-c3ccc(O)cc3)sc2c1 [compound 277]	0	0	–
Nc1nnnn1/N=C/c1ccccc1 [compound 278]	0	0	–
O=C(Nc1ccc(Cl)cn1)c1cccnc1 [compound 279]	0	0	–
O=C(Cn1cnc2ccccc2c1=O)Nc1cccc(C(=O)O)c1 [compound 280]	0	0	–
CC(=O)c1ccc(NS(=O)(=O)c2ccc(N)cc2)cc1 [compound 283]	0	0	–

SMILES	[…]. coli [5] [%]	[…]. anthracis [2] [%]	other results
O=S(=O)(Nc1nc2ccccc2s1)c1ccc(Cl)s1 [compound 284]	0	7	–
Cn1c(SCC(N)=O)nnc1-c1ccc(Br)cc1 [compound 286]	0	0	–
Nc1c(C(=O)Nc2ccc(F)c(F)c2)sc2nc(-c3ccncc3)ccc12 [compound 287]	0	0	–
Nc1nc(-c2ccc(Cl)c([N+](=O)[O-])c2)n[nH]1 [compound 288]	0	0	–
O=C(CNS(=O)(=O)c1ccc(Br)s1)NCCC1=CCCCC1 [compound 289]	0	4	–
CC(=O)O/C(=C\c1cn(C(C)=O)c2ccccc12)C(=O)O [compound 291]	0	0	–
O=S(=O)(N/N=C/c1cccc(OC2CSC2)c1)c1ccccc1 [compound 292]	0	0	–
O=C(O)CSc1cccc(SCC(=O)O)c1 [compound 293]	0	5	–
O=C(NCc1ccccn1)c1ccc(Cl)cc1Cl [compound 294]	0	0	–
COc1ccc(-c2noc(COc3ccc(Cl)cc3Cl)n2)cc1 [compound 295]	0	11	–
O=S(=O)(Nc1ccc(Cl)cc1)c1ccc(Cl)s1 [compound 297]	0	0	–
CCn1c(CNc2ccc(F)cc2)nnc1SCC(N)=O [compound 298]	0	0	–
COc1ccccc1OCc1nc(-c2ccc(Cl)cc2Cl)no1 [compound 299]	0	1	–
CC(=O)NS(=O)(=O)c1ccc(/N=C2\C(=O)Nc3ccccc32)cc1 [compound 300]	0	0	–
C=CCNC(=O)c1cc(-c2ccc(Br)cc2)on1 [compound 301]	0	0	–
O=C(CCN1C(=O)c2ccccc2C1=O)NCc1ccncc1 [compound 302]	0	0	–
Clc1ccc(CNc2nc[nH]n2)cc1 [compound 305]	0	0	–
CSc1cccc(NS(=O)(=O)c2ccc(Cl)cc2)c1 [compound 306]	0	0	–
O=S(=O)(NCCc1ccccc1)c1ccc(Br)s1 [compound 307]	0	0	–
